In PubChem BioAssay (NCI):
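Each compound was tested at five concentrations against cells in 96-well plates for 48 hours. TGI marks complete inhibition of growth.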 Where a SMILES comes first, the peptide text is derived from it. The star is where a group is joined. Boc = CC(C)(C)OC(=O)*

Experiments:
Assay in all cases: NCI anticancer screen, dose series, 48 h
HCT-15 colon = test system: HCT-15 colon
MALME-3M melanoma = test system: MALME-3M melanoma
SNB-19 CNS = test system: SNB-19 CNS
HT29 colon = test system: HT29 colon
MOLT-4 leukemia = test system: MOLT-4 leukemia
CAKI-1 renal = test system: CAKI-1 renal
MDA-N = test system: MDA-N
HS 578T breast = test system: HS 578T breast
SK-OV-3 ovarian = test system: SK-OV-3 ovarian
SF-295 CNS = test system: SF-295 CNS
COLO 205 colon = test system: COLO 205 colon

| Structure (SMILES) | TGI (HCT-15 colon) | TGI (MALME-3M melanoma) | TGI (SNB-19 CNS) | TGI (HT29 colon) | TGI (MOLT-4 leukemia) | TGI (CAKI-1 renal) | TGI (MDA-N) | TGI (HS 578T breast) | TGI (SK-OV-3 ovarian) | TGI (SF-295 CNS) | TGI (COLO 205 colon) |
| --- | --- | --- | --- | --- | --- | --- | --- | --- | --- | --- | --- |
| COC(=O)C(Cc1c[nH]c2ccccc12)NC(=O)C(Cc1c[nH]c2ccccc12)NC(=O)C(Cc1c[nH]c2ccccc12)NC(=O)C(Cc1c[nH]c2ccccc12)NC(=O)C(Cc1c[nH]c2ccccc12)NC(=O)C(Cc1c[nH]c2ccccc12)NC(=O)C(Cc1c[nH]c2ccccc12)NC(=O)C(Cc1c[nH]c2ccccc12)NC(=O)OC(C)(C)C (configuration not stated) (Boc-WWWWWWWW-OMe; configuration not given here) | > 100 µM | > 100 µM | > 100 µM | > 100 µM | > 100 µM | > 100 µM | > 100 µM |  |  |  |  |
| O=C1CC(c2ccccc2)n2cccc21 (configuration not stated) | > 100 µM |  | > 100 µM | > 100 µM |  | > 100 µM |  | > 100 µM | > 100 µM | > 100 µM | > 100 µM |
| CN(C)c1nc(Cl)c2c(-c3ccccc3)c(-c3ccccc3)oc2n1 | > 100 µM |  | > 100 µM | > 100 µM | 96.2 µM | > 100 µM |  | > 100 µM | > 100 µM | > 100 µM | > 100 µM |
| NC(=S)N/N=C\c1nccc2ccccc12 | > 100 µM | > 23.1 µM | > 100 µM | 30.9 µM | 0.827 µM |  | > 100 µM | > 100 µM | 0.681 µM | 0.781 µM | 2.89 µM |
| COc1cc(CNNC(N)=S)cc(OC)c1OC | > 100 µM | > 100 µM | > 100 µM | > 100 µM | > 100 µM | > 100 µM | > 100 µM | > 100 µM |  | > 100 µM | > 100 µM |
| COc1cc(/C=C/C(=O)C2(C(=O)/C=C/c3cc(OC)c(OC)c(OC)c3)CCCCC2)cc(OC)c1OC | > 100 µM | > 100 µM | > 100 µM | > 100 µM |  | > 100 µM |  | 89.8 µM | > 100 µM | 89 µM | > 100 µM |
| CCOC(=O)NC(Nc1ccc(C(=O)OCC)cc1)(C(F)(F)F)C(F)(F)F | > 100 µM | > 100 µM | > 100 µM | > 100 µM | > 100 µM |  | > 100 µM | > 100 µM | > 100 µM | > 100 µM | > 100 µM |
| N#Cc1ccc(-n2c3ccccc3c3ccc4c(c32)C(=O)C=CC4=O)cc1 | 16.1 µM |  | 26.6 µM | 5.88 µM |  | 2.72 µM | 13.1 µM | 39.3 µM | 27.3 µM | 28.2 µM | 10.5 µM |
